According to paper PMC3577712 (PLoS ONE, 2013):

Tests used:
[1] = system: influenza A/WSN/33 (H1N1); test: microbe, parasite or virus in culture; type: cell-based; conditions: MDCK, read-out: EC50 for viral plaque formation
A/WSN/33 (H1N1) = type: cell-based, influenza A virus
A/WSN/33 = type: cell-based, influenza A virus
Bac-NA^WT = Bac-NA^WT (Influenza A virus, UniProt Q6DPL2); test: biochemical
[2] = system: influenza A/Udorn/72 (H3N2); test: microbe, parasite or virus in culture; type: cell-based; conditions: H3N2, MDCK, read-out: EC50 for viral plaque formation
N2 NA = N2 NA (Influenza A virus, UniProt P0DOF9); test: biochemical
NA = conditions: cited from earlier work

Chain of Bac-NA^WT (Q6DPL2 63-449 limits assumed): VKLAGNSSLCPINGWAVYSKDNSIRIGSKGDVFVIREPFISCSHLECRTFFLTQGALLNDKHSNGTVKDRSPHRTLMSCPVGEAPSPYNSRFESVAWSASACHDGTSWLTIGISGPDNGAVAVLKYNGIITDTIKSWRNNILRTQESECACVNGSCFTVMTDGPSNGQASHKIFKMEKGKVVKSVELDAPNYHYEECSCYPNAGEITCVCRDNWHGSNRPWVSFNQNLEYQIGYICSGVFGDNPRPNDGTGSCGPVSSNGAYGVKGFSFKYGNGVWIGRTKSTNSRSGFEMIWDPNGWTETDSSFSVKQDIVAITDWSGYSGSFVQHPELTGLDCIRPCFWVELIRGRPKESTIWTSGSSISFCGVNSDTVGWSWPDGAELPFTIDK
Chain of N2 NA (P0DOF9 whole entry, looked up): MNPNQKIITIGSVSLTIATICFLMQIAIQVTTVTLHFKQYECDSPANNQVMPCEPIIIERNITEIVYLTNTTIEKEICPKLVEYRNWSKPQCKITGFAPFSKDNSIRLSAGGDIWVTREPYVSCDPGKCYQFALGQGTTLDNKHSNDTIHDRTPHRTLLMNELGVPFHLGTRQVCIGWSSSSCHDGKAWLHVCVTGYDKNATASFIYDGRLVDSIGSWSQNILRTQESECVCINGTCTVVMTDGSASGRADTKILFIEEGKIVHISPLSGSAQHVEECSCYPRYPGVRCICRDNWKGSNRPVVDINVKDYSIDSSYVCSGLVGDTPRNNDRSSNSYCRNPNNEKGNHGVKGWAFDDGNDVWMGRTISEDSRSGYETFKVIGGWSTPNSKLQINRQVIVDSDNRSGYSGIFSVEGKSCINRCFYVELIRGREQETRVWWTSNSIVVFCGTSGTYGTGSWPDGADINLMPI

With `Nc1c(S(=O)(=O)O)cc(Nc2cccc(S(=O)(=O)CCOS(=O)(=O)O)c2)c2c1C(=O)c1ccccc1C2=O` [RB19, Remazol Brilliant Blue R] the EC50 [1] was 2.7 µM, the “Virus yields (fluorogenic signal of NA activity)” value (A/WSN/33 (H1N1)) was “dramatically reduced virus yields” and the Influenza-induced cytopathic effect (A/WSN/33) was “inhibits the influenza-induced cytopathic effect”. It also gave an IC50 (Bac-NA^WT) of 3.4 µM, an EC50 [2] of 2.8 µM and an IC50 (N2 NA) of 15.3 µM.
In the case of DANA, the IC50 (NA) is listed as 10 µM.
